From patent US20220170028A1, “NOVEL INTERLEUKIN-2 VARIANTS AND BIFUNCTIONAL FUSION MOLECULES THEREOF” (Cugene Inc, priority 2019, published 2022)

Key:
[1] = Transient expression level of IL-2 Fc fusion constructs in HEK-293F cells; conditions: Isoleucine-125 constructs
Method: The constructs were produced by co-transfecting HEK293-F cells growing in suspension with the mammalian expression vectors using polyethylenimine (PEI, 25,000 MW linear, Polysciences). If there were two or more expression vectors, the vectors were transfected in a 1:1 ratio. For transfection, HEK293 cells were cultivated in serum free FreeStyle™ 293 Expression Medium (ThermoFisher). For production in 1000 ml shaking flasks (working volume 330 mL), HEK293 cells were seeded at a density of 0.8×10^6 cells/ml 24 hours before transfection. A total of 330 μg of DNA expression vectors were mixed with 16.7 ml Opti-mem Medium (ThermoFisher). After addition of 0.33 mg PEI diluted in 16.7 ml Opti-mem Medium, the mixture was vortexed for 15 sec and subsequently incubated for 10 min at room temperature. The DNA/PEI solution was then added to the cells and incubated at 37° C. in an incubator with 8% CO2. Sodium butyrate (Millipore Sigma) was added to the cells at day 4 at a final concentration of […] to help sustain protein expression. After 6 days cultivation, supernatant was collected for purification by centrifugation for 20 min at 2200 rpm. The solution was sterile filtered (0.22 μm filter, Corning). The secreted protein was purified from cell culture supernatants using Protein A affinity chromatography.
S125I substitution was thus introduced into a number of IL-2 variant Fc fusion molecules. The constructs harboring Ile-125 substitution in IL-2 were expressed using the same vector and in the same culturing conditions as their Ser-125 counterparts and purified using MabSelectSure. The expression level in mg/L and purity assessed by SEC chromatography in aggregation % of exemplary molecules are summarized in Table 6. The two molecules in the same row of Table 6 share the same other amino acid substitution(s) and differ only at residue 125 with either serine or isoleucine. As an example, the SEC chromatogram and SDS-PAGE pictures of P-0447 (SEQ ID NO: 173) and its Ile-125 counterpart P-0511 (SEQ ID NO: 213) were further illustrated in FIGS. 1D and 1E.

[2] = test system: Treg cells; experiment: Treg proliferation and expansion in mice after a single subcutaneous injection (Example 9); type: in vivo, mouse; conditions: 0.3 mg/kg single s.c., C57/BL6 mice
Method: IL-2 variant Fc fusion proteins were administered to mice and their ability to preferentially proliferate and expand regulatory T cells (CD4+CD25+FoxP3+ T cells) over effector T cells and NK cells were determined in vivo.
Female C57/BL6 mice (7-week old) were received from Charles River Laboratory and acclimated in house for at least 7 days before the study. Vehicle (PBS), 0.3 mg/kg of each test compounds, or IL-2 benchmark compounds were subcutaneously administered to mice on day 0. Peripheral blood samples were collected into heparin-treated tubes on days 3, 5 and 7 post-treatment. Each group contained 6 mice and baseline blood was collected 2 days prior to the treatment (day −2). After red blood cell lysis, total viable mononuclear blood cells were counted by trypan blue dead cell exclusion method and proceeded to intracellular staining for immune cell phenotype and Ki67 proliferation markers using flow cytometric analysis. Cells were stained separately with two panels of antibodies as listed: 1) anti-mouse Foxp3-FITC, Ki67-PE, anti-mouse CD25-APC and anti-mouse CD4-Percpcy5.5 (1:50 dilution) for CD4+T-regulatory cells (Treg); 2) anti-mouse CD3-FITC, Ki67-PE, anti-mouse CD335-APC and anti-mouse CD8-Percpcy5.5 (1:50 dilution) for CD8+T and NK cells.

Substance: P-0511: IL-2 L19H/S125I/Q126E Fc fusion, SEQ ID NO: 213
- Expression [1]: 26.6 mg/L
- Treg/Tconv ratio (Ki67 stimulation and cell counts) ([2]; all measured time points): most beneficial Treg/Tconv ratio
- stimulation of Treg cell proliferation and expansion in vivo (in words) ([2]; days 3, 5, 7): stronger in vivo efficacy
